Reference: patent US20240285638A1, “METHODS FOR TREATING FACIOSCAPULOHUMERAL MUSCULAR DYSTROPHY (FSHD)” (RESEARCH INSTITUTE AT NATIONWIDE CHILDREN'S HOSPITAL, priority 2021, published 2024)

Columns and labels:
DUX4 [1] = test: DUX4-activated biomarkers and target genes in biopsied muscle of FSHD patients after IM or IV injection; format: in vivo, human
Experimental: SAA and AdOx, or derivatives thereof, as described herein, are injected into patients suffering from FSHD intramuscularly (IM) or intravenously (IV). Prior to treatment and after 4, 8, 12, 16, 20, 24, 28, 32, 36 40, 44, 48, and 52 weeks, DUX4-activated biomarkers and/or DUX4 target genes in muscle of the patients are measured in biopsied muscle as described herein.

[2] = system: human myoblasts expressing DUX4; test: Caspase-3/7 activation assay in human myoblasts transfected with DUX4, with or without inhibitor; format: cell-based; conditions: inhibitor added 1.5 hours later, increasing concentrations, caspase assay 48 hours later, FIGS. 6A-B
Experimental: HEK293 cells were transfected with 100 ng plasmid DNA (65,000 cells/well) using Lipofectamine 2000 and assays were performed 48 hours later using the Apo-ONE Homogeneous Caspase-3/7 Assay (Promega). The protocol was followed according to the manufacturer's instructions. Briefly, 100 μl of the reagent was added to each well and the 96-well plate was gently rotated for 20 min. Relative fluorescence was monitored every hour for 4-6 hours. Inhibitor studies were performed in human myoblasts which were transfected with 100 ng of DUX4 DNA (65,000 cells/well) with Lipofectamine 2000. The inhibitors adenosine dialdehyde or salvianolic acid A were added 1.5 hours later and a caspase assay was performed 48 hours later as above. The observation that a DUX4 arginine methylation null mutant protects from cell death and DUX4 interacts with an arginine methyltransferase indicate a role for arginine methylation inhibitors as protective in FSHD disease models. Thus, the global methylation inhibitor, adenosine dialdehyde (AdOx)^17, and the PRMT1 inhibitor, salvianolic acid A (SAA)^18 were tested for their ability to protect against DUX4-mediated cell death. The caspase assay was performed in human myoblasts expressing DUX4 in the presence or absence of AdOx or SAA.

DUX4 [3] = test: DUX4 biomarker and target gene expression in muscle of FSHD mouse model (TIC-DUX4) after IM or IV injection; format: in vivo
Experimental: SAA and AdOx, or derivatives thereof, as described herein, are each injected into a FSHD mouse model (TIC-DUX4) or any other mouse model of FSHD mice intramuscularly (IM) or intravenously (IV). After 4, 8, 12, 16, 20, and 24 weeks, the ? DUX4, a DUX4 biomarker, such as Wfdc3 or Trim36, and DUX4 target gene expression are measured by qRT-PCR, RNAscope, or ddPCR.

O=C(/C=C/c1ccc(O)c(O)c1/C=C/c1ccc(O)c(O)c1)O[C@H](Cc1ccc(O)c(O)c1)C(=O)O [SAA, salvianolic acid A]
FSHD disease symptoms (DUX4 [1]): Improvement in FSHD disease symptoms
expression levels of DUX4-activated biomarkers and/or DUX4 target genes in muscle (DUX4 [1]; 4-52 weeks, vs same patients prior to treatment): Reduced expression levels of DUX4-activated biomarkers and/or DUX4 target genes
caspase cleavage (DUX4-mediated cell death) [2]: decreased caspase cleavage in a dose-responsive manner
DUX4 biomarker expression in muscle (Wfdc3 or Trim36) (DUX4 [3]; IM or IV, 4-24 weeks, vs untreated mice): Reduced levels of DUX4 biomarker expression
expression of DUX4 target genes PRAMEF12, ZSCAN4, TRIM43, LEUTX (DUX4 [3]; IM or IV, vs untreated mice): decreased expression of DUX4 target genes
muscle strength, morphology, ambulation and motor function (DUX4 [3]; treated mice): improved muscle strength, morphology, and overall ambulation and motor function
